Results: patent US20260182611A1, “SWEETENER COMPOSITION AND TASTE-IMPROVING AGENT” (AJINOMOTO CO., INC., priority 2023, published 2026)

Test: Sensory evaluation of taste quality (sweetness intensity, bitter taste, lingering sweetness) of sweet solutions by trained panel
Design: species or system human
Details: closer to PC sucrose
Protocol: Rebaudioside A (MORITA KAGAKU KOGYO CO., LTD.) was dissolved in filtered water (ion exchange water) to prepare a 720 ppm aqueous solution of rebaudioside A, which was used as the negative control (NC) solution.
Sucrose (Mitsui DM Sugar Co., Ltd.) was dissolved in filtered water to prepare a 7.5% aqueous solution of sucrose, which was used as the positive control (PC) solution.
Sweet solutions prepared by adding each compound (naringenin (Penta Manufacturing Company), hesperetin (Xi'an International Healthcare Factory Co., Ltd.), pinocembrin (Shaanxi Ebony Biotech Co., Ltd.), γ-Glu-Val-Gly (AJINOMOTO CO., INC.), γ-Glu-Abu (AJINOMOTO CO., INC.), yeast extract containing γ-Glu-Abu, γ-nonalactone (Sigma-Aldrich Co. LLC.)) to NC solution at the concentrations indicated in Tables 1 to 5 were evaluated by sensory evaluation.
The yeast extract containing γ-Glu-Abu used in this example was a powdered yeast extract containing 7 to 13% (w/w) γ-Glu-Abu based on dry weight, which was produced in accordance with the method described in WO 2012/046731 or “Savorboost (product name) yeast extract containing γ-Glu-Abu (Asahi Group Foods, Ltd.)”. In Tables 1-4, the concentration of the yeast extract containing γ-Glu-Abu added is shown as a value converted to the amount of γ-Glu-Abu in the yeast extract.
The taste quality of the PC solution (7.5% sucrose) was scored as 10.0 points, the taste quality of the NC solution (720 ppm rebaudioside A) was scored as 1.0 points, and the sensory evaluation score for each sample was evaluated in 0.1 point increments. The taste quality was evaluated including sweetness intensity, intensity of bitter taste, and intensity of lingering sweetness. Samples with an evaluation score of 3 or higher were deemed to have a taste quality-improving effect. The evaluation was performed by a panel of four people who had received sensory evaluation training, and was conducted by blind evaluation. The average evaluation score of all panel members was calculated and addition effect was examined.
In addition, to compare with the addition effect of a single component, a theoretical additive point was calculated and compared with the evaluation score when the components were added in combination to examine the presence or absence of a synergistic effect.

[1] = 5 ppm of the flavonoid in combination with 0.3 ppm γ-Glu-Val-Gly
[2] = flavonoid in combination with γ-Glu-Abu or a yeast extract containing γ-Glu-Abu

Structure (SMILES) | taste quality of rebaudioside A [1] | taste quality of rebaudioside A [2] | taste quality of rebaudioside A (combination of pinocembrin and rebaudioside A alone)
O=C1C[C@@H](c2ccc(O)cc2)Oc2cc(O)cc(O)c21 [naringenin] | synergistically improved the taste quality of rebaudioside A | synergistically improved the taste quality of rebaudioside A | 
COc1ccc(C2CC(=O)c3c(O)cc(O)cc3O2)cc1O (stereo not shown) [hesperetin] | synergistically improved the taste quality of rebaudioside A | synergistically improved the taste quality of rebaudioside A | 
O=C1CC(c2ccccc2)Oc2cc(O)cc(O)c21 (stereo not shown) [pinocembrin] | synergistically improved the taste quality of rebaudioside A | synergistically improved the taste quality of rebaudioside A | improved the taste quality of rebaudioside A
